Results on 69 compounds are retold here after paper PMC8380238, “Structure-based virtual screening of CYP1A1 inhibitors: towards rapid tier-one assessment of potential developmental toxicants” (Archives of Toxicology, 2021).

Series [1] deals with human CYP1A1. Set-up: unit not given beside the values. The note with it: cited from earlier work.
The target in series [2] is T1, human recombinant CYP1A1 (rCYP1A1) (Homo sapiens, UniProt P04798).
T1 sequence (P04798 1-512): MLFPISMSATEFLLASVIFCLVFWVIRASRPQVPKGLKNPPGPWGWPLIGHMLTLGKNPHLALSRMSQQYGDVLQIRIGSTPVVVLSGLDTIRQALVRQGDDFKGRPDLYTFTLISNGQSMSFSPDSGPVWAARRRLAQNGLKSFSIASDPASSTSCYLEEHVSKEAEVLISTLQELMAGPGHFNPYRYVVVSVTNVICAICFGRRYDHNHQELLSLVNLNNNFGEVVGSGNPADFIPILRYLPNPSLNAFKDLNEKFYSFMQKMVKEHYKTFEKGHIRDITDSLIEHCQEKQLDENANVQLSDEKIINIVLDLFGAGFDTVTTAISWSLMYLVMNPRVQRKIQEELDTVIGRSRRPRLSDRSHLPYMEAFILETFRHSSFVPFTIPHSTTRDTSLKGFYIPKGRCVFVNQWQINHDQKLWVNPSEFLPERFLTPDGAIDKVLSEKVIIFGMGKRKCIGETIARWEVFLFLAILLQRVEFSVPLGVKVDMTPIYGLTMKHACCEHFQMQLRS
In words: CYP1A1 activity assay: inhibition of CEC metabolism (IC50).

[3] abbreviates: CYP1A1 IC50 (range of colour key, Fig. 5a).

Where a name gives a salt, the structure may show the parent alone. Read-outs that look alike come from different tables or passages of the source.

For orientation: IC50 means the concentration needed to halve the response being measured.

Take `c1ccc2[nH]c(-c3cscn3)nc2c1` [Thiabendazole]: the AC50 in series [1] is reported as 0.674.

With `Sc1nc2ccccc2s1` [2-Mercaptobenzothiazole], the AC50 in series [1] is reported as -0.7864. For the compound `Oc1cc2ccccc2c2ccccc12` [9-Phenanthrol], the AC50 in series [1] was 0.7409. As to `CSC(C)(C)C=NO` [Aldicarb oxime], the AC50 in series [1] is recorded as 0.7517.

For `CC(C)(C#N)c1cc(Cn2cncn2)cc(C(C)(C)C#N)c1` [Anastrozole, reference compound], the results for the IC50 in series [2] (setting [3]) and in series [2] (IC50) were 100 to 1000 µM and 190 µM, respectively. In the case of `COP(=S)(OC)SCN1C(=O)c2ccccc2C1=O` [Phosmet], the AC50 in series [1] is on record as 0.5339. `COC(=O)[C@H]1[C@H]2C[C@@H]3c4[nH]c5cc(OC)ccc5c4CCN3C[C@H]2C[C@@H](OC(=O)c2cc(OC)c(OC)c(OC)c2)[C@@H]1OC` [Reserpine]: in series [1], the AC50 is given as -0.938. As for `CCNc1nc(Cl)nc(NC(C)C)n1` [Atrazine], in series [1], the AC50 is 0.9162. Consider `CC(C)(O)c1coc(S(=O)(=O)NC(=O)Nc2c3c(cc4c2CCC4)CCC3)c1` [CP-456773], for which the AC50 in series [1] was -1.144. For `COC(=O)c1c(Cl)c(Cl)c(C(=O)OC)c(Cl)c1Cl` [Chlorthal-dimethyl], the AC50 in series [1] (ToxCast NVS_ADME_hCYP1A1, NA cells left out, ref ToxCast) is listed as -0.9489. For `C=CCOC(Cn1ccnc1)c1ccc(Cl)cc1Cl` (stereo not drawn) [Imazalil], the AC50 in series [1] was 0.1501.

Regarding `CCNc1nc(Cl)nc(NCC)n1` [Simazine], the AC50 in series [1] was 0.05448.

On to `Cc1cc(N=Nc2ccccc2C)ccc1N` [2-Amino-5-azotoluene], for which the AC50 in series [1] is listed as 0.8236. Turning to `Oc1ccc(C(c2ccc(O)cc2)C(Cl)(Cl)Cl)cc1`, in series [1], the AC50 is given as 0.8687. For `CC(C)NC(=O)N1CC(=O)N(c2cc(Cl)cc(Cl)c2)C1=O` [Iprodione], in series [1], the AC50 is on record as 0.8242. Take `CCCN(CCOc1c(Cl)cc(Cl)cc1Cl)C(=O)n1ccnc1` [Prochloraz]: in series [1], the AC50 is -0.384.

As to `CCCCCCCCn1sc(Cl)c(Cl)c1=O` [4,5-Dichloro-2-octyl-3(2H)-isothiazolone], the AC50 in series [1] is 0.9038. Take `Nc1ccc(-c2ccc(N)cc2)cc1` [Benzidine]: the AC50 in series [1] is 0.5505. As for `CCOP(=S)(OCC)Oc1ccc([N+](=O)[O-])cc1` [Parathion], in series [1], the AC50 is on record as 0.5508. On to `O=C(c1ccc(OCCN2CCCCC2)cc1)c1c(-c2ccc(O)cc2)sc2cc(O)ccc12` [Raloxifene hydrochloride], for which the AC50 in series [1] is given as 0.811. For `CN(C)CCCN1c2ccccc2Sc2ccc(Cl)cc21` [Chlorpromazine hydrochloride], the AC50 in series [1] is listed as 0.7565. Consider `COC(=O)N(OC)c1ccccc1COc1ccn(-c2ccc(Cl)cc2)n1` [Pyraclostrobin], for which the AC50 in series [1] is 0.2248. On to `COc1ccc(C(=CC(=O)N2CCOCC2)c2ccc(Cl)cc2)cc1OC` [Dimethomorph], for which, in series [1], the AC50 was 0.8349. As for `CCOP(=S)(OCC)SCn1c(=O)oc2cc(Cl)ccc21` [Phosalone], the AC50 in series [1] is recorded as -0.311.

Consider `O=[N+]([O-])c1c(Cl)c(Cl)c(Cl)c(Cl)c1Cl` [Pentachloronitrobenzene], for which the AC50 in series [1] is recorded as -0.9415.

For `CNc1cnn(-c2cccc(C(F)(F)F)c2)c(=O)c1Cl` [Norflurazon], the AC50 in series [1] is on record as 0.8239. As to `CC1=C(/C=C/C(C)=C/C=C/C(C)=C/C(=O)O)C(C)(C)CCC1` [all-trans-Retinoic acid], in series [1] (ToxCast NVS_ADME_hCYP1A1, NA = no AC50, ref ToxCast), the AC50 is 0.1194. On to `OC(c1ccc(Cl)cc1)(c1cncnc1)c1ccccc1Cl` (stereo not drawn) [Fenarimol], for which the AC50 in series [1] was 0.89. As to `CCOC(=O)CC(SP(=S)(OC)OC)C(=O)OCC` (stereo not drawn) [Malathion], the AC50 in series [1] is 0.4737. `COP(=S)(OC)Oc1ccc([N+](=O)[O-])cc1` [Methyl parathion]: the AC50 in series [1] is listed as 0.8544. For the compound `C#CCOC(=O)[C@@H](C)Oc1ccc(Oc2ncc(Cl)cc2F)cc1` [Clodinafop-propargyl], the AC50 in series [1] is on record as 0.4557.

In the case of `C[C@]12CC[C@H](O)CC1=CC[C@@H]1[C@@H]2CC[C@]2(C)C(=O)CC[C@@H]12` [DHEA, dehydroepiandrosterone], the results for the IC50 in series [2] (setting [3]) and in series [2] (IC50) were 100 to 1000 µM and 130 µM, respectively.

Regarding `Cc1[nH]cnc1C[C@H]1CCc2c(C)c3ccccc3n2C1=O.Cl` [Fabesetron hydrochloride], the AC50 in series [1] is 0.583. With `CCCC1COC(Cn2cncn2)(c2ccc(Cl)cc2Cl)O1` (stereo not drawn) [Propiconazole], in series [1], the AC50 is 0.9547. In the case of `CCCCN(CCCC)SN(C)C(=O)Oc1cccc2c1OC(C)(C)C2` [Carbosulfan], in series [1], the AC50 is 0.7573. With `C#CC(C)(C)NC(=O)c1cc(Cl)cc(Cl)c1` [Propyzamide], in series [1], the AC50 was 0.363.

For `C=C(C)[C@H]1Cc2c(ccc3c2O[C@@H]2COc4cc(OC)c(OC)cc4[C@@H]2C3=O)O1` [Rotenone], the AC50 in series [1] was 0.8835. For `CC1COC(Cn2cncn2)(c2ccc(Oc3ccc(Cl)cc3)cc2Cl)O1` (stereo not drawn) [Difenoconazole], the AC50 in series [1] is recorded as 0.1639.

Take `O=c1[nH]sc2ccccc12` [1,2-Benzisothiazolin-3-one]: the AC50 in series [1] was 0.7251. For `C=CCc1cc(S(=O)(=O)c2ccc(O)c(CC=C)c2)ccc1O`, in series [1], the AC50 is on record as 0.2892. As to `CC#Cc1cc(C)nc(Nc2ccccc2)n1` [Mepanipyrim], the AC50 in series [1] is on record as -0.2464. `O=C(Nc1ccccc1)c1ccccc1I` [Benodanil]: the AC50 in series [1] is -1.884.

For the compound Chlorpyrifos oxon, the AC50 in series [1] is recorded as 0.9288. As for `Oc1ccc2ccc3cccc4ccc1c2c34` [1-Hydroxypyrene], the AC50 in series [1] is listed as 0.4188. With `CCOP(=O)(NC(C)C)Oc1ccc(SC)c(C)c1` (stereo not drawn) [Fenamiphos], the AC50 in series [1] is on record as 0.6838. On to `O=[N+]([O-])C(Br)(CO)CO` [Bronopol], for which the AC50 in series [1] is reported as 0.9179. `CN(C)c1ccc(C(=C2C=CC(=[N+](C)C)C=C2)c2ccc(N(C)C)cc2)cc1` [Gentian Violet]: the AC50 in series [1] is 0.2591. Take `COc1cc(-c2ccc(N)c(OC)c2)ccc1N` [3,3'-Dimethoxybenzidine]: in series [1], the AC50 is listed as 0.5453. For the compound `COP(=S)(OC)SCn1nnc2ccccc2c1=O` [Azinphos-methyl], the AC50 in series [1] is -0.4803. Take `CCOP(=S)(OCC)SCSCC` [Phorate]: the AC50 in series [1] was 0.6456. Take `CON(C)C(=O)Nc1ccc(Cl)c(Cl)c1` [Linuron]: the AC50 in series [1] was 0.4776. Consider `CCCOC/C(=N\c1ccc(Cl)cc1C(F)(F)F)n1ccnc1` [Triflumizole], for which the AC50 in series [1] is 0.6164.

As to `Nc1cccc2c(N)cccc12` [1,5-Naphthalenediamine], in series [1], the AC50 is reported as 0.8388. Regarding `CCCCOCCOCCOCc1cc2c(cc1CCC)OCO2` [Piperonyl butoxide], the AC50 in series [1] is 0.8015. Regarding `C[C@]12CC[C@@H]3c4ccc(O)cc4CC[C@H]3[C@@H]1[C@@H](O)[C@@H](O)[C@@H]2O` [Estetrol], the IC50 in series [2] (CYP1A1 IC50 (range of colour key, Fig. 5a), 5 µM CEC, range assigned by colour of the point) was 100 to 1000 µM; in series [2] (IC50, 5 µM CEC, maximum tested concentration 200 µM (ketoconazole 20 µM), ∞ = the best fitted model was the constant model), above 200 µM. For `CN(C)c1ccc(Cc2ccc(N(C)C)cc2)cc1` [4,4'-Methylenebis(N,N-dimethylaniline)], the AC50 in series [1] is on record as 0.5763. With `COc1nn(CSP(=S)(OC)OC)c(=O)s1` [Methidathion], the AC50 in series [1] is 0.6887. For `CC1(C)CCC(=Cc2ccc(Cl)cc2)C1(O)Cn1cncn1` (stereo not drawn) [Triticonazole], in series [1], the AC50 is recorded as -0.101. As to `CCOC(=O)C(Cl)Cc1cc(-n2nc(C)n(C(F)F)c2=O)c(F)cc1Cl` (stereo not drawn) [Carfentrazone-ethyl], the AC50 in series [1] is recorded as 0.8125.

For `N#CC(CCc1ccc(Cl)cc1)(Cn1cncn1)c1ccccc1` (stereo not drawn) [Fenbuconazole], the AC50 in series [1] was -0.05845. Turning to `Oc1ccc2c(c1)-c1ccccc1C2` [3-Hydroxyfluorene], in series [1], the AC50 is given as 0.7484. With `CSc1nc(NC(C)C)nc(NC(C)C)n1` [Prometryn], the AC50 in series [1] is listed as 0.888. In the case of `CC(C)(C)C(=O)C(Oc1ccc(Cl)cc1)n1cncn1` (stereo not drawn) [Triadimefon], the AC50 in series [1] is listed as 0.3192. As to `CS/C(C)=N\OC(=O)N(C)SN(C)C(=O)O/N=C(\C)SC` [Thiodicarb], the AC50 in series [1] is given as 0.9955. In the case of `CCOP(=S)(OCC)Oc1ccc2c(C)c(Cl)c(=O)oc2c1` [Coumaphos], the AC50 in series [1] was -0.5619. With `c1ccc(C(O[C@@H]2CCCN(CCc3ccc4c(c3)OCO4)C2)c2ccccc2)cc1` [Zamifenacin], the AC50 in series [1] (NVS_ADME_hCYP1A1, values appear to be log10, ref ToxCast) is 0.759.

Turning to `COc1ccc(-c2ccccc2)cc1NNC(=O)OC(C)C` [Bifenazate], the AC50 in series [1] is -0.1841.

Turning to `CCNP(=S)(OC)O/C(C)=C/C(=O)OC(C)C` (stereo not drawn) [Propetamphos], the AC50 in series [1] was 0.3484. As for `O=C(Nc1ccccc1)Nc1ccnc(Cl)c1` [Forchlorfenuron], in series [1], the AC50 is 0.9909.
